Experimental data from PubChem BioAssay (NCI).
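1) Cells in 96-well plates. 2) Compound, 48 h, 5 concentrations. 3) Linear interpolation between surrounding doses. 4) Unreached endpoint = highest concentration. TGI marks complete inhibition of growth.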

Columns and labels:
Experiment in all cases: NCI anticancer screen, dose series, 48 h
U251 CNS = system: U251 CNS
786-0 renal = system: 786-0 renal
T-47D breast = system: T-47D breast
A549 NSCLC = system: A549 NSCLC
HCT-116 colon = system: HCT-116 colon
TK-10 renal = system: TK-10 renal
SF-539 CNS = system: SF-539 CNS
UO-31 renal = system: UO-31 renal
UACC-257 melanoma = system: UACC-257 melanoma
SN12C renal = system: SN12C renal
SNB-19 CNS = system: SNB-19 CNS

Row | SMILES | TGI (U251 CNS) [µM] | TGI (786-0 renal) [µM] | TGI (T-47D breast) [µM] | TGI (A549 NSCLC) [µM] | TGI (HCT-116 colon) [µM] | TGI (TK-10 renal) [µM] | TGI (SF-539 CNS) [µM] | TGI (UO-31 renal) [µM] | TGI (UACC-257 melanoma) [µM] | TGI (SN12C renal) [µM] | TGI (SNB-19 CNS) [µM]
1 | c1csc(-c2ccc(-c3cccc4nsnc34)s2)c1 | > 100 | > 100 | > 100 | > 100 | > 100 | > 100 | > 100 | > 100 | > 100 | > 100 | > 100
2 | CCOC(=O)C(SCCO)C(C(=O)OCC)n1cnc2c(=O)[nH]c(NC(C)=O)nc21 (configuration not stated) | > 100 | > 100 | > 100 | > 100 | > 100 | > 100 | > 100 | > 100 | > 100 | > 100 | > 100
3 | CC(C)=CCc1c2c(c3occ(-c4ccc(O)cc4)c(=O)c3c1O)CC(C(C)(C)O)O2 (configuration not stated) | 25.9 | 35.6 | 34.1 | 27.8 | 45.3 | 30.1 | 41.1 | 22.2 | 29.1 | 38.5 | 31.3
4 | O=C1/C(=C\c2ccccc2)C(NC2CCCCC2)c2ccccc21 (configuration not stated) | 3.48 | 2.14 | 4.69 | 16.4 | 2.44 | 2.59 | 4.39 | 2.31 | 2.69 | 4.37 | 22.5
5 | C1CN(c2nc3c(nnc4nc(N5CCOCC5)sc43)s2)CCO1 | > 100 | > 100 | > 100 | > 100 | > 100 | > 100 | > 100 | > 100 | > 100 | > 100 | > 100
6 | c1ccc(N=c2sc3ccccc3nc2Nc2ccccc2)cc1 | > 100 | > 100 | > 100 | > 100 | > 100 | > 100 | > 100 | > 100 | > 100 | > 100 | > 100
7 | COCO[C@@H]1C[C@H]2C(=O)Nc3ccccc3C(=O)N2C1 | > 100 | > 100 | > 100 | > 100 | > 100 | > 100 | > 100 | 74.5 | > 100 | > 100 | > 100
8 | Nc1nc(Cl)cc(NCC2(CO)CC(=O)C2)n1 | > 100 | > 100 | > 100 | > 100 | > 100 | > 100 | > 100 | > 100 | > 100 | > 100 | > 100
9 | N#Cc1c(N2CCCC2)ncn(-c2ccccc2)c1=O | > 100 | > 100 | > 100 | > 100 | > 100 | > 100 | > 100 | > 100 | > 100 | > 100 | > 100
10 | Cc1ccccc1C(=O)N1CCc2c([nH]c3ccccc23)C1 | 41.3 | 54.4 | 71.8 | > 100 | 33 | 80.2 | 48.4 | > 100 | 58.2 | 34.1 | > 100
11 | Cc1ccc([N+](=O)[O-])cc1NC1=NCCO1 | > 100 | > 100 | > 100 | > 100 | > 100 | > 100 | > 100 | > 100 | > 100 | > 100 | > 100
12 | O=C1CSC(c2ccc(Cl)cc2)N1c1ccc(Oc2ccc(Cl)cc2)c(Cl)c1 (configuration not stated) | 36.2 | 30.5 | 24.9 | 34.5 | 29.8 | 33.2 | 30.4 | 21 | 33.2 | 38.6 | 30.2
13 | [N-]=[N+]=NC[C@H]1OCO[C@H](CN=[N+]=[N-])[C@@H](OCCOCCCl)[C@@H]1OCCOCCCl | > 100 | > 100 | > 100 | > 100 | > 100 | > 100 | > 100 | 57.2 | > 100 | > 100 | > 100
14 | CC(C)(C)N1CSC(=S)N(Cc2ccco2)C1 | 14.4 | 11.5 | 46.4 | 24.4 | 16.7 | 11.6 | 2.62 | 6.14 | 25 | 16.7 | 14.5
15 | O=C1CC(NC(=O)C(F)(F)F)c2c(Br)sc(N3CCNCC3)c21 (configuration not stated) | > 100 | > 100 | > 100 | > 100 | > 100 | > 100 | > 100 | > 100 | > 100 | > 100 | > 100
16 | O=[N+]([O-])c1cccc(-c2csc(NNC3=NC/C(=C/c4ccc5c(c4)OCO5)S3)n2)c1 | > 100 | > 100 | > 100 | > 100 | > 100 | 81.6 | > 100 | 85.6 | > 100 | > 100 | 64.8
17 | Cc1cc(Cc2cc(C)c(N)cc2N)c(N)cc1N | > 100 | > 100 | > 100 | > 100 | > 100 | > 100 | > 100 | > 100 | > 100 | > 100 | > 100
